Legend:
[1] = biological target: KRas WT (Homo sapiens, UniProt P01116); test: biochemical;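 note: binding to KRas read as TR-FRET displacement after a one-hour room-temperature incubation, IC50 derived from percent-of-control values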
Experimental: (§2) The ability of a compound to bind to KRas was measured using a TR-FRET displacement assay. […] After a 60-minute incubation at room temperature, the reaction was measured using a BMG LABTECH CLARIO star Plus via TR-FRET. […] The POC values were fit to a 4-parameter IC50 equation and the IC50 value reported.

[2] = biological target: T1, KRas Q61H (Homo sapiens, UniProt P01116, Q61H); test: KRas binding assay (TR-FRET displacement);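 note: TR-FRET signal read after one hour at room temperature, IC50 derived by four-parameter fitting of percent-of-control values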
T1 construct: Biotinylated KRas (corresponding to amino acids 1-169, produced at Accelegan Inc.); biotin (biotinylated); purchased Accelegan Inc
Experimental: as §2

[3] = biological target: KRas G12D (Homo sapiens, UniProt P01116, G12D); test: biochemical;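 note: TR-FRET displacement binding assay on KRas, read after a one-hour incubation at room temperature, IC50 fitted from percent-of-control values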
Experimental: as §2

[4] = biological target: T2, KRas G13D (Homo sapiens, UniProt P01116, G13D); test: KRas binding assay (TR-FRET displacement);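 note: One-hour room temperature incubation before TR-FRET reading, IC50 from a four-parameter curve fit to percent-of-control data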
T2 construct: Biotinylated KRas (corresponding to amino acids 1-169, produced at Accelegan Inc.); biotin (biotinylated); purchased Accelegan Inc
Experimental: as §2

[5] = biological target: KRas G12S (Homo sapiens, UniProt P01116, G12S); test: biochemical;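 note: TR-FRET displacement binding to KRas, read after one hour incubation at room temperature, IC50 from four-parameter fit of percent of control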
Experimental: as §2

[6] = test system: phospho-ERK in NCI-H460 (Q61H) cells; test: Inhibition of KRas-mediated phosphorylation of ERK (in-cell western); format: cell-based; settings: Homo sapiens, NCI-H460, 3 h, 3 hours compound, phospho-ERK normalized to GAPDH
Procedure, shortened: (§1)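 Cells were treated with compound for 3 hours (0.5% DMSO final), then fixed with formaldehyde and permeabilized with ice-cold methanol. Phospho-ERK (Thr202/Tyr204) was detected by antibody and normalized to GAPDH per well, expressed as percent of DMSO control, and IC50 obtained by 4-parameter fit.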

[7] = test system: phospho-ERK in NCI-H727 (G12V) cells; test: as above; format: cell-based; settings: Homo sapiens, NCI-H727, 3 h, 3 hours compound, phospho-ERK normalized to GAPDH
Procedure, shortened: as §1

[8] = test system: phospho-ERK in AsPC-1 (G12D) cells; test: as above; format: cell-based; settings: Homo sapiens, ASPC1, 3 h, 3 hours compound, phospho-ERK normalized to GAPDH
Procedure, shortened: as §1

[9] = test system: phospho-ERK in A549 (G12S) cells; test: as above; format: cell-based; settings: Homo sapiens, 3 hours compound, phospho-ERK normalized to GAPDH
Procedure, shortened: as §1

[10] = test system: phospho-ERK in HCT116 (G13D) cells; test: as above; format: cell-based; settings: Homo sapiens, HCT-116, 3 hours compound, phospho-ERK normalized to GAPDH
Procedure, shortened: as §1

[11] = test system: phospho-ERK in NCI-H358 (G12C) cells; test: as above; format: cell-based; settings: Homo sapiens, 3 hours compound, phospho-ERK normalized to GAPDH
Procedure, shortened: as §1

[12] = test system: phospho-ERK in MKN1 (WTdep) cells; test: as above; format: cell-based; settings: Homo sapiens, MKN-1, 3 hours compound, phospho-ERK normalized to GAPDH
Procedure, shortened: as §1

[13] = test system: phospho-ERK in PSN-1 (G12R) cells; test: as above; format: cell-based; settings: Homo sapiens, PSN1, 3 hours compound, phospho-ERK normalized to GAPDH
Procedure, shortened: as §1

[14] = biological target: KRas G12A (Homo sapiens, UniProt P01116, G12A); test: biochemical;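 note: binding to KRas measured by TR-FRET displacement after one hour at room temperature, IC50 from a four-parameter fit of percent-of-control values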
Experimental: as §2

[15] = biological target: KRas G12R (Homo sapiens, UniProt P01116, G12R); test: biochemical;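 note: TR-FRET displacement assay of compound binding to KRas, read after one hour at room temperature, potency from a four-parameter fit of percent-of-control values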
Experimental: as §2

[16] = biological target: KRas G12V (Homo sapiens, UniProt P01116, G12V); test: biochemical;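 note: KRas binding measured by TR-FRET displacement at room temperature, IC50 fitted from percent of control values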
Experimental: as §2

[17] = biological target: KRas G12C (Homo sapiens, UniProt P01116, G12C); test: biochemical;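 note: binding to KRas assessed by TR-FRET displacement after one hour incubation at room temperature, potency fitted from percent-of-control values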
Experimental: as §2

[18] = test system: pERK in MKN1 cells; test: Inhibition of KRas phosphorylation of ERK (Cisbio HTRF pERK assay); settings: Homo sapiens, MKN-1, 3 h, read-out: Inhibition (HTRF IC50) of KRas-mediated Phosphorylation of ERK, MKN1
[19] = test system: pERK in PSN1 cells; test: as above; settings: Homo sapiens, PSN1, 3 h, read-out: Inhibition (HTRF IC50) of KRas-mediated Phosphorylation of ERK, PSN1
[20] = test system: pERK in ASPC1 cells; test: as above; settings: Homo sapiens, ASPC1, read-out: Inhibition (HTRF IC50) of KRas-mediated Phosphorylation of ERK, AsPC-1
[21] = test system: pERK in H727 cells; test: as above; settings: Homo sapiens, NCI-H727, read-out: Inhibition (HTRF IC50) of KRas-mediated Phosphorylation of ERK, H727
[22] = test system: pERK in HCT116 cells; test: as above; settings: Homo sapiens, HCT-116, read-out: Inhibition (HTRF IC50) of KRas-mediated Phosphorylation of ERK, HCT116

KRas G12V, sequence (P01116 1-169 isoform P01116-2 G12V): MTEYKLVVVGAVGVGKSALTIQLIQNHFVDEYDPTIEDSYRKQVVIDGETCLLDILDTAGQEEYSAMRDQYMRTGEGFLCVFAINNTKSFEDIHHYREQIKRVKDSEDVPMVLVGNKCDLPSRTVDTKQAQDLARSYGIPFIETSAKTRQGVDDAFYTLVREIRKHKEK
T2 sequence (P01116 1-169 isoform P01116-2 G13D): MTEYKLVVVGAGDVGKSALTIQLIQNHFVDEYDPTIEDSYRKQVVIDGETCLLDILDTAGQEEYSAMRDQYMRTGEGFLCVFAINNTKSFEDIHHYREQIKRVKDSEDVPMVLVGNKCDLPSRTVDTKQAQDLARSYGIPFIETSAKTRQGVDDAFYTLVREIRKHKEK
KRas G12C, sequence (P01116 1-169 isoform P01116-2 G12C): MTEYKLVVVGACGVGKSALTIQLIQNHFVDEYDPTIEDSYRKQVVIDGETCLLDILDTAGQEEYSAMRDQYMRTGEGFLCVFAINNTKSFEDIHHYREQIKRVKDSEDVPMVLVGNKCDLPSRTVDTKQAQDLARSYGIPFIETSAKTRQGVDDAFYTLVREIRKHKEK
KRas G12D, sequence (P01116 1-169 isoform P01116-2 G12D): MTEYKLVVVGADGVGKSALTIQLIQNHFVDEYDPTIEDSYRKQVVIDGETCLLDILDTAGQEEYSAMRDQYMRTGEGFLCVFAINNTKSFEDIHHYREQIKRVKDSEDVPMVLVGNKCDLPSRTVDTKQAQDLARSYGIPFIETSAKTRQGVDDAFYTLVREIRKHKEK
KRas G12R, sequence (P01116 1-169 isoform P01116-2 G12R): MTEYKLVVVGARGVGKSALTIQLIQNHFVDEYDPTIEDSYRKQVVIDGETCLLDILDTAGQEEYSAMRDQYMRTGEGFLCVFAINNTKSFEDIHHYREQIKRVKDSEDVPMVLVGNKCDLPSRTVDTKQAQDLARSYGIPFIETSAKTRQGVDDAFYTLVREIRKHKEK
KRas G12A, sequence (P01116 1-169 isoform P01116-2 G12A): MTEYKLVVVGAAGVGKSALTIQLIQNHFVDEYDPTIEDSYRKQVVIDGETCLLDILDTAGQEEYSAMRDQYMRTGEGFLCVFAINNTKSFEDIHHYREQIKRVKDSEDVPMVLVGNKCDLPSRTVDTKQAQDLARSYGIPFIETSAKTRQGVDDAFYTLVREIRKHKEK
T1 sequence (P01116 1-169 isoform P01116-2 Q61H): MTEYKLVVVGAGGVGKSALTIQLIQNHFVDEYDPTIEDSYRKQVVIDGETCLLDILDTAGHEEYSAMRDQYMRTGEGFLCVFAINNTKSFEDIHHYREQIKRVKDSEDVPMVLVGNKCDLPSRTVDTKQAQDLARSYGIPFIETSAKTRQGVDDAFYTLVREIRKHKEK
KRas WT, sequence (P01116 1-169 isoform P01116-2): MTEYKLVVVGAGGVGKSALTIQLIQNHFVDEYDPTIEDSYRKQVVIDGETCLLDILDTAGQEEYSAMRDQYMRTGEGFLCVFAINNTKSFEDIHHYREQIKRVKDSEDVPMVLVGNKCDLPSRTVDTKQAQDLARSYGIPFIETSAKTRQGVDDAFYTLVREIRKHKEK
KRas G12S, sequence (P01116 1-169 isoform P01116-2 G12S): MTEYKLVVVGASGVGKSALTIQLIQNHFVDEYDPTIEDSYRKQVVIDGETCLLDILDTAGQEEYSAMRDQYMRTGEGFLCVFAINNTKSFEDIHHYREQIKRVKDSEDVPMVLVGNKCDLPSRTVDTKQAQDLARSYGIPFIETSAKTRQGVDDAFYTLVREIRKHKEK

Row | IC50 [1] [nM] | IC50 [3] [nM] | IC50 [5] [nM] | IC50 [14] [nM] | IC50 [15] [nM] | IC50 [16] [nM] | IC50 [17] [nM] | IC50 [20] [nM] | IC50 [21] [nM] | Compound | IC50 [6] [nM] | IC50 [7] [nM] | IC50 [8] [nM] | IC50 [9] [nM] | IC50 [10] [nM] | IC50 [11] [nM] | IC50 [12] [nM] | IC50 [13] [nM] | further results
1 | 3 | ≤ 2 | ≤ 2 | ≤ 2 | ≤ 2 | ≤ 2 | ≤ 2 |  |  | CCc1c(F)ccc2cc(O)cc(-c3ncc4c(N5CCCCC5)nc(OC[C@@]56CCCN5C[C@H](O)C6)nc4c3F)c12 [Example 7] | 416 | 530 | 802 | 1090 | 627 | 199 | 32 | 3590 | IC50 [2]: 3 nM; IC50 [4]: 3 nM
2 | ≤ 2 | ≤ 2 | ≤ 2 | ≤ 2 | ≤ 2 | ≤ 2 | ≤ 2 |  |  | C#Cc1c(F)ccc2cc(O)cc(-c3ncc4c(N5CCCC6(CNC(=O)C6)C5)nc(OC[C@@]56CCCN5C[C@H](F)C6)nc4c3F)c12 (stereo partly shown) [Example 24] | 2820 | 4720 | 1680 | ≥ 10000 | 1370 | 454 | 406 | 3690 | 
3 |  | 3 |  |  | 6 | ≤ 2 |  | 2100 | 1920 | CC1(O)CCCN(c2nc(OCC34CCCN3CCC4)nc3c(F)c(-c4cc(O)cc(Cl)c4C4CC4)ncc23)C1 (stereo not shown) [Example 71, 1-(7-(3-chloro-2-cyclopropyl-5-hydroxyphenyl)-8-fluoro-2-((tetrahydro-1H-pyrrolizin-7a(5H)-yl)methoxy)pyrido[4,3-d]pyrimidin-4-yl)-3-methylpiperidin-3-ol] | 2170 | 2240 | 4730 | ≥ 10000 | 1950 | 361 | 140 | ≥ 10000 | 
4 |  | 9 |  |  | 6 | 5 |  | 623 | 912 | C[C@@H]1C[C@@H]1c1c(Cl)cc(O)cc1-c1ncc2c(N3CCCC(C)(O)C3)nc(OCC34CCCN3CCC4)nc2c1F (stereo partly drawn) [Example 132, 1-(7-(3-chloro-5-hydroxy-2-((1S,2R)-2-methylcyclopropyl)phenyl)-8-fluoro-2-((tetrahydro-1H-pyrrolizin-7a(5H)-yl)methoxy)pyrido[4,3-d]pyrimidin-4-yl)-3-methylpiperidin-3-ol] | 206 | ≥ 10000 | 104 | ≥ 10000 | ≥ 10000 | 131 | 27 | ≥ 10000 | 
5 |  | 108 |  |  | 30 | 20 |  |  |  | CCc1c(F)ccc2cc(O)cc(-c3ncc4c(NCCCc5ccncc5)nc(OC[C@@]56CCCN5C[C@H](F)C6)nc4c3F)c12 [Example 176, 5-ethyl-6-fluoro-4-(8-fluoro-2-(((2R,7aS)-2-fluorohexahydro-1H-pyrrolizin-7a-yl)methoxy)-4-((3-(pyridin-4-yl)propyl)amino)pyrido[4,3-d]pyrimidin-7-yl)naphthalen-2-ol] | 3510 | 3950 | ≥ 10000 | ≥ 10000 | ≥ 10000 | 1250 | 701 | ≥ 10000 | 

More lines, now with the values behind:

Row | Compound | IC50 [1] [nM] | IC50 [3] [nM] | IC50 [5] [nM] | IC50 [14] [nM] | IC50 [15] [nM] | IC50 [16] [nM] | IC50 [17] [nM] | IC50 [20] [nM] | IC50 [21] [nM] | IC50 [6] [nM] | IC50 [7] [nM] | IC50 [8] [nM] | IC50 [9] [nM] | IC50 [10] [nM] | IC50 [11] [nM] | IC50 [12] [nM] | IC50 [13] [nM] | further results
6 | C#Cc1c(F)ccc2cccc(-c3ncc4c(N5CCC[C@@](C)(O)C5)nc(OCC56CCCN5CCC6)nc4c3F)c12 [Example 14, (R)-1-(7-(8-ethynyl-7-fluoronaphthalen-1-yl)-8-fluoro-2-((hexahydro-1H-pyrrolizin-7a-yl)methoxy)pyrido[4,3-d]pyrimidin-4-yl)-3-methylpiperidin-3-ol] | 51 | 29 | 58 | 58 | 109 | 52 | 51 |  |  | ≥ 10000 | 4580 | 847 | ≥ 10000 | 1590 | 725 | 1380 | ≥ 10000 | IC50 [2]: 80 nM; IC50 [4]: 61 nM
7 | CCc1c(F)ccc2cccc(-c3ncc4c(N5CCC[C@@](C)(O)C5)nc(OCC56CCCN5CCC6)nc4c3F)c12 [Example 15] | 41 | 24 | 42 | 38 | 81 | 42 | 37 |  |  | ≥ 10000 | ≥ 10000 | 731 | 3640 | 5160 | 495 | 1260 | ≥ 10000 | IC50 [2]: 52 nM; IC50 [4]: 42 nM
8 | CCc1c(F)ccc2cccc(-c3ncc4c(N5CCC[C@@](C)(O)C5)nc(OC[C@@]56CCCN5C[C@H](F)C6)nc4c3F)c12 [Example 16, (R)-1-(7-(8-ethyl-7-fluoronaphthalen-1-yl)-8-fluoro-2-(((2R,7aS)-2-fluorohexahydro-1H-pyrrolizin-7a-yl)methoxy)pyrido[4,3-d]pyrimidin-4-yl)-3-methylpiperidin-3-ol] |  |  |  |  |  |  |  |  |  | 113 | ≥ 10000 | 654 | 1760 | 2180 | 1180 | 802 | ≥ 10000 | IC50 [18]: 275 nM; IC50 [19]: ≥ 10000 nM
9 | CCc1c(F)ccc2cc(O)cc(-c3ncc4c(N5CCCC6(CNC(=O)N6)C5)nc(OC[C@@]56CCCN5C[C@H](F)C6)nc4c3F)c12 (stereo partly shown) [Example 133] |  | ≤ 2 |  |  | ≤ 2 | ≤ 2 |  | 144 | 246 | 49 | 612 | 156 | 55 | 650 | 41 | 171 | ≥ 10000 | IC50 [22]: 360 nM
10 | CCc1c(F)ccc2cc(O)cc(-c3ncc4c(NCCC(N)=O)nc(OC[C@@]56CCCN5C[C@H](F)C6)nc4c3F)c12 [Example 141] |  | ≤ 2 |  |  | ≤ 2 | ≤ 2 |  | 641 | 2130 | 1110 | ≥ 10000 | 210 | 875 | ≥ 10000 | 88 | 282 | ≥ 10000 | 
11 | CCc1c(F)ccc2cc(O)cc(-c3ncc4c(OCCCc5cccnc5)nc(OC[C@@]56CCCN5C[C@H](F)C6)nc4c3F)c12 [Example 298, 5-ethyl-6-fluoro-4-(8-fluoro-2-(((2R,7aS)-2-fluorohexahydro-1H-pyrrolizin-7a-yl)methoxy)-4-(3-(pyridin-3-yl)propoxy)pyrido[4,3-d]pyrimidin-7-yl)naphthalen-2-ol] |  | 1520 |  |  | 99 | 133 |  |  |  | ≥ 10000 | ≥ 10000 | ≥ 10000 | ≥ 10000 | ≥ 10000 | 5010 | 2710 | ≥ 10000 | 

— patent US12398154B2, “Azaquinazoline pan-KRas inhibitors” (Mirati Therapeutics, Inc., priority 2020, dated 2025)
